# According to patent publication US10077243B2, “Compounds for treating disorders mediated by metabotropic glutamate receptor 5, and methods of use thereof” (Sunovion Pharmaceuticals Inc., priority 2009, dated 2018):
# Where two headings read alike, the source gives them in different places.
# Target: T1, human mGluR5 (Homo sapiens, UniProt P41594)
# T1 construct: expressed in transfected cells; host or cells: HEK293 cells stably expressing rat GLAST (EAAT1), stably transfected with pcDNAzeo3.1 carrying synthetic human mGluR5 DNA; zeocin-selected single clones
# T1 sequence (P41594 21-1212): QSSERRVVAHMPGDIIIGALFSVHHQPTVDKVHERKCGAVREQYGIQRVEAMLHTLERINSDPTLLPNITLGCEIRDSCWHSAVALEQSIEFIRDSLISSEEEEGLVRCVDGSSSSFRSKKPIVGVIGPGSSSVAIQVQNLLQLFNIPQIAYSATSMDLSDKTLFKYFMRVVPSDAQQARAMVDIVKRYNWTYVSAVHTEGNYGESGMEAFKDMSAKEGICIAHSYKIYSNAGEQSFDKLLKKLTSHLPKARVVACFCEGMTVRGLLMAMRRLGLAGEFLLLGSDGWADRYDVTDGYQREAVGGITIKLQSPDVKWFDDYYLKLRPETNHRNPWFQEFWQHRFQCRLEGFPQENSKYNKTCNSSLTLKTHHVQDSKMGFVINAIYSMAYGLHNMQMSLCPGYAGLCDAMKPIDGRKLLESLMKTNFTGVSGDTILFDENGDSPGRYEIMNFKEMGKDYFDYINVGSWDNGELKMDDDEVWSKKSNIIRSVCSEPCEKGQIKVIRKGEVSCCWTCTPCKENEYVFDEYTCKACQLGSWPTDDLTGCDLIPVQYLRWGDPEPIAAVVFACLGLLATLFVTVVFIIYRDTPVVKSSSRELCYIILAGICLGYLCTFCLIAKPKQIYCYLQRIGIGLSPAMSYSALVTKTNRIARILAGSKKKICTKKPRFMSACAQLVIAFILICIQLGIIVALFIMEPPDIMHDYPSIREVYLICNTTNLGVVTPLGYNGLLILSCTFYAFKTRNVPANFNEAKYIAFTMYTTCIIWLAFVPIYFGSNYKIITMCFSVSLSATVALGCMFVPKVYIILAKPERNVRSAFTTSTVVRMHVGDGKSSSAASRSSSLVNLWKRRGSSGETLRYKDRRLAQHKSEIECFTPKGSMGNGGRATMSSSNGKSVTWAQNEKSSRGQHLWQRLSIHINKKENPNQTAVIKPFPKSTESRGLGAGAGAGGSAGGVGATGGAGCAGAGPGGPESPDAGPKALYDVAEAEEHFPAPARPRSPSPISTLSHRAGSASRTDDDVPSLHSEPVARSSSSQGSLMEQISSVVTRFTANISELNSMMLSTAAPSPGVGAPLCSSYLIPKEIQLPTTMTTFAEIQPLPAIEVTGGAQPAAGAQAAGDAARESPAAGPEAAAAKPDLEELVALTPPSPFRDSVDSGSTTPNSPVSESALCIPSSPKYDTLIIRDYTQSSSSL
# Test: In vitro cell-based FLIPR calcium assay for positive modulation of the activation of mGluR5 by glutamate (PAM EC50)
# Conditions: FLIPR calcium signal, glutamate added at its EC20
# Outline: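 PAM activity was measured as FLIPR calcium fluorescence in the presence of an EC20 glutamate concentration determined daily from a glutamate concentration-response curve. Cells were HEK293/GLAST clones expressing mGluR5, dye-loaded at 25 °C for 45–60 min in HEPES-buffered HBSS; vehicle control was 0.3% DMSO.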
# [1] = HEK293/GLAST cells expressing recombinant human mGluR5, read-out: mGluR5 PAM EC50
Structure (SMILES),EC50 [1],"EC50 (mGluR5 PAM EC50, HEK293/GLAST cells expressing recombinant human mGluR5)"
"CCCC1CCc2nc3cc(C#Cc4ccc(F)cc4)ccc3c(=O)n2CC1 (centres unmarked) [Example 6.13, 3-((4-fluorophenyl)ethynyl)-8-propyl-7,8,9,10-tetrahydroazepino[2,1-b]quinazolin-12(6H)-one]",30 to 100 nM,
"O=c1c2ccc(C#Cc3ccccn3)cc2nc2n1CCC(O)CC2 (centres unmarked) [Example 6.16, 8-hydroxy-3-(pyridin-2-ylethynyl)-7,8,9,10-tetrahydroazepino[2,1-b]quinazolin-12(6H)-one]",30 to 100 nM,
"O=c1c2ccc(C#Cc3cccnc3)cc2nc2n1CCC(O)CC2 (centres unmarked) [Example 6.17, 8-hydroxy-3-(pyridin-3-ylethynyl)-7,8,9,10-tetrahydroazepino[2,1-b]quinazolin-12(6H)-one]",100 to 300 nM,
"O=c1c2ccc(C#Cc3cccc(F)c3)cc2nc2n1CC/C(=N\O)CC2 [Example 6.23, 3-((3-fluorophenyl)ethynyl)-8-(hydroxyimino)-7,8,9,10-tetrahydroazepino[2,1-b]quinazolin-12(6H)-one]",30 to 100 nM,
"O=c1c2ccc(C#Cc3ccccn3)cc2nc2n1CCC1(CCCO1)CC2 (centres unmarked) [Example 6.27, 3-(pyridin-2-ylethynyl)-4′,5′,9,10-tetrahydro-3′H,6H-spiro[azepino[2,1-b]quinazoline-8,2′-furan]-12(7H)-one]",30 to 100 nM,
"CC(C)CC1CCCCc2nc3cc(C#Cc4ccc(F)cc4)ccc3c(=O)n21 (centres unmarked) [Example 6.32, 3-((4-fluorophenyl)ethynyl)-10-isobutyl-7,8,9,10-tetrahydroazepino[2,1-b]quinazolin-12(6H)-one]",100 to 300 nM,
"C=CCC1CCCCc2nc3cc(C#Cc4ccc(F)cc4)ccc3c(=O)n21 (centres unmarked) [Example 6.33, 10-allyl-3-((4-fluorophenyl)ethynyl)-7,8,9,10-tetrahydroazepino[2,1-b]quinazolin-12(6H)-one]",10 to 30 nM,
"O=c1c2ccc(C#Cc3cccc(F)c3)cc2nc2n1CCC1(CC2)OCCO1 [Example 6.34, 3-((3-fluorophenyl)ethynyl)-9,10-dihydro-6H-spiro[azepino[2,1-b]quinazoline-8,2′-[1,3]dioxolan]-12(7H)-one]",10 to 30 nM,
"CC1CCCCn2c1nc1cc(C#Cc3ccccn3)ccc1c2=O (centres unmarked) [Example 6.35, 6-methyl-3-(pyridin-2-ylethynyl)-7,8,9,10-tetrahydroazepino[2,1-b]quinazolin-12(6H)-one]",10 to 30 nM,
"CC1CCCn2c(nc3cc(C#Cc4ccccn4)ccc3c2=O)C1 (centres unmarked) [Example 6.36, 7-methyl-3-(pyridin-2-ylethynyl)-7,8,9,10-tetrahydroazepino[2,1-b]quinazolin-12(6H)-one]",10 to 30 nM,
"O=c1c2ccc(C#Cc3ccccn3)cc2nc2n1CCC(C(F)(F)F)CC2 (centres unmarked) [Example 6.38, 3-(pyridin-2-ylethynyl)-8-(trifluoromethyl)-7,8,9,10-tetrahydroazepino[2,1-b]quinazolin-12(6H)-one]",30 to 100 nM,
"N#CC1CCc2nc3cc(C#Cc4ccccn4)ccc3c(=O)n2CC1 (centres unmarked) [Example 6.39, 12-oxo-3-(pyridin-2-ylethynyl)-6,7,8,9,10,12-hexahydroazepino[2,1-b]quinazoline-8-carbonitrile]",100 to 300 nM,
"CC1(C)CCc2nc3cc(C#Cc4ccccn4)ccc3c(=O)n2CC1 [Example 6.40, 8,8-dimethyl-3-(pyridin-2-ylethynyl)-7,8,9,10-tetrahydroazepino[2,1-b]quinazolin-12(6H)-one]",,< 10 nM
"CC1(C)CCCc2nc3cc(C#Cc4ccccn4)ccc3c(=O)n2C1 [Example 6.43, 9,9-dimethyl-3-(pyridin-2-ylethynyl)-7,8,9,10-tetrahydroazepino[2,1-b]quinazolin-12(6H)-one]",10 to 30 nM,
N#Cc1cccc(C#Cc2ccc3c(=O)n4c(nc3c2)CCCCC4)n1 [Example 6.45],10 to 30 nM,
"CC1CCc2nc3cc(C#Cc4cccc(C#N)n4)ccc3c(=O)n2CC1 (centres unmarked) [Example 6.47, 6-((8-methyl-12-oxo-6,7,8,9,10,12-hexahydroazepino[2,1-b]quinazolin-3-yl)ethynyl)picolinonitrile]",30 to 100 nM,

# The next lines start with results.
EC50 [1],Structure (SMILES),"EC50 (mGluR5 PAM EC50, HEK293/GLAST cells expressing recombinant human mGluR5)"
10 to 30 nM,"Cc1cnc(C#Cc2ccc3c(=O)n4c(nc3c2)CCC(C)CC4)s1 (centres unmarked) [Example 6.8, 8-methyl-3-((5-methylthiazol-2-yl)ethynyl)-7,8,9,10-tetrahydroazepino[2,1-b]quinazolin-12(6H)-one]",
< 10 nM,"CC1CCc2nc3cc(C#Cc4ccccn4)ccc3c(=O)n2CC1 (centres unmarked) [Example 6.9, 8-methyl-3-(pyridin-2-ylethynyl)-7,8,9,10-tetrahydroazepino[2,1-b]quinazolin-12(6H)-one]",
< 10 nM,"CCC1CCc2nc3cc(C#Cc4ccc(F)cc4)ccc3c(=O)n2CC1 (centres unmarked) [Example 6.12, 8-ethyl-3-((4-fluorophenyl)ethynyl)-7,8,9,10-tetrahydroazepino[2,1-b]quinazolin-12(6H)-one]",
10 to 30 nM,"O=C1CCc2nc3cc(C#Cc4cccc(F)c4)ccc3c(=O)n2CC1 [Example 6.14, 3-((3-fluorophenyl)ethynyl)-6,7,9,10-tetrahydroazepino[2,1-b]quinazoline-8,12-dione]",
< 10 nM,"O=c1c2ccc(C#Cc3cccc(F)c3)cc2nc2n1CCC(O)CC2 (centres unmarked) [Example 6.15, 3-((3-fluorophenyl)ethynyl)-8-hydroxy-7,8,9,10-tetrahydroazepino[2,1-b]quinazolin-12(6H)-one]",
< 10 nM,"COC1CCc2nc3cc(C#Cc4cccc(F)c4)ccc3c(=O)n2CC1 (centres unmarked) [Example 6.18, 3-((3-fluorophenyl)ethynyl)-8-methoxy-7,8,9,10-tetrahydroazepino[2,1-b]quinazolin-12(6H)-one]",
< 10 nM,"C=C1CCc2nc3cc(C#Cc4cccc(F)c4)ccc3c(=O)n2CC1 [Example 6.22, 3-((3-fluorophenyl)ethynyl)-8-methylene-7,8,9,10-tetrahydroazepino[2,1-b]quinazolin-12(6H)-one]",
10 to 30 nM,"COCC1CCc2nc3cc(C#Cc4cccc(F)c4)ccc3c(=O)n2CC1 (centres unmarked) [Example 6.24, 3-((3-fluorophenyl)ethynyl)-8-(methoxymethyl)-7,8,9,10-tetrahydroazepino[2,1-b]quinazolin-12(6H)-one]",
10 to 30 nM,"O=c1c2ccc(C#Cc3cccc(F)c3)cc2nc2n1CCC1(CCCO1)CC2 (centres unmarked) [Example 6.26, 3-((3-fluorophenyl)ethynyl)-4′,5′,9,10-tetrahydro-3′H,6H-spiro[azepino[2,1-b]quinazoline-8,2′-furan]-12(7H)-one]",
< 10 nM,"CC1(C)CCCn2c(nc3cc(C#Cc4ccccn4)ccc3c2=O)C1 [Example 6.37, 7,7-dimethyl-3-(pyridin-2-ylethynyl)-7,8,9,10-tetrahydroazepino[2,1-b]quinazolin-12(6H)-one]",
< 10 nM,"CC1CCCc2nc3cc(C#Cc4ccccn4)ccc3c(=O)n2C1 (centres unmarked) [Example 6.42, 9-methyl-3-(pyridin-2-ylethynyl)-7,8,9,10-tetrahydroazepino[2,1-b]quinazolin-12(6H)-one]",
< 10 nM,"CC1CCCCc2nc3cc(C#Cc4ccccn4)ccc3c(=O)n21 (centres unmarked) [Example 6.44, 10-methyl-3-(pyridin-2-ylethynyl)-7,8,9,10-tetrahydroazepino[2,1-b]quinazolin-12(6H)-one]",
< 10 nM,"O=c1c2ccc(C#Cc3ccccn3)cc2nc2n1CCC(F)CC2 (centres unmarked) [Example 6.46, 8-fluoro-3-(pyridin-2-ylethynyl)-7,8,9,10-tetrahydroazepino[2,1-b]quinazolin-12(6H)-one]",
